What was measured:
Assay type in all cases: tissue-based
Cavia porcellus [1] = organism: Cavia porcellus; experiment: Selectivity ratio of ED25 for beta-adrenergic receptor in guinea pig right atrial muscle to ED50 for beta-adrenergic receptor in guinea pig tracheal tissue; settings: Cardiac atrium
Cavia porcellus [2] = organism: Cavia porcellus; experiment: Intrinsic activity at beta-adrenergic receptor in guinea pig right atrial muscle assessed as rate of contraction of spontaneously beating atria relative to isoproterenol; settings: Cardiac atrium
Cavia porcellus [3] = organism: Cavia porcellus; experiment: Agonist activity at beta-adrenergic receptor in guinea pig tracheal tissue assessed as bronchodilator activity; settings: Trachea
Cavia porcellus [4] = organism: Cavia porcellus; experiment: Agonist activity at beta-adrenergic receptor in guinea pig right atrial muscle assessed as rate of contraction of spontaneously beating atria; settings: Cardiac atrium
Cavia porcellus [5] = organism: Cavia porcellus; experiment: Agonist activity at beta-adrenergic receptor in guinea pig right atrial muscle assessed as rate of contraction of spontaneously beating atria at 9.9 x 10^-5 M; settings: Cardiac atrium
Cavia porcellus [6] = organism: Cavia porcellus; experiment: Agonist activity at beta-adrenergic receptor in guinea pig right atrial muscle assessed as rate of contraction of spontaneously beating atria at 1.7 x 10^-5 M; settings: Cardiac atrium

Compound	Selectivity ratio (Cavia porcellus [1])	Intrinsic activity (Cavia porcellus [2])	ED50 (Cavia porcellus [3])	ED25 (Cavia porcellus [4])	Activity (Cavia porcellus [5]) [%]	Activity (Cavia porcellus [6]) [%]
CC(C)(C)NCC(O)c1ccc(O)c(CS(C)(=O)=O)c1 (stereo not given)	1650	0.3	1.7 ×10⁻⁸ M	2.8 ×10⁻⁵ M	–	–
CC(C)NCC(O)c1ccc(O)cc1 (stereo not given)	0.7	0.8	1.1 ×10⁻⁷ M	7.7 ×10⁻⁸ M	–	–
CC(C)(C)NCC(O)c1ccc(O)c(CO)n1 (stereo not given)	43	0.8	2.8 ×10⁻⁹ M	1.2 ×10⁻⁷ M	–	–
CC(C)(C)NCC(O)c1ccc(O)c(CS(C)(=O)=O)n1 (stereo not given)	> 3410	–	2.9 ×10⁻⁸ M	9.9 ×10⁻⁵ M	13	–
Cc1nc(C(O)CNC(C)(C)C)ccc1O (stereo not given)	36	0.4	2.8 ×10⁻⁷ M	1 ×10⁻⁵ M	–	–
CC(C)(C)NCC(O)c1ccc(O)c(CO)c1 (stereo not given)	28	0.7	1.1 ×10⁻⁸ M	3.1 ×10⁻⁷ M	–	–
CC(C)(C)NCC(O)c1ccc(O)cn1 (stereo not given)	> 182	–	3.1 ×10⁻⁷ M	1.7 ×10⁻⁵ M	–	7
CC(C)NCC(O)c1ccc(O)c(O)c1 (stereo not given)	–	–	7.1 ×10⁻⁹ M	3.4 ×10⁻⁹ M	–	–

From ChEMBL document CHEMBL3272046, “Adrenerigic agents. 7.1 Synthesis and beta-adrenergic agonist activity of several 2-pyridylethanolamines” (J Med Chem, 1977)
